Data from patent US6943183B2 (Pfizer Inc, priority 2000, dated 2005).

Tests used:
[1] = tested on: human lung carcinoma with K-ras mutation and p53 deletion; conditions: nude mice; cited from earlier work
[2] = biological target: T1, SF9 affinity purified rat FPT (Rattus norvegicus, UniProt Q02293+Q04631); experiment: PFT (FPT) inhibitory activity assay, radiolabeled farnesyl pyrophosphate and biotinyl peptide, streptavidin beads; assay type: biochemical; conditions: HEPES buffer pH 7.4, 30° C., 30 minutes; read-out: FTase IC50
T1 construct: made in house; host or cells: Sf9 insect cells
Outline: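 Rat FPT expressed in SF9 cells was incubated 30 minutes at 30° C. with compound (in 10% DMSO), radiolabeled farnesyl pyrophosphate and biotinylated peptide. Buffer: HEPES pH 7.4, ZnCl2 20 μM, MgCl2 and DTT 5 mM each, 0.1% PEG 8000, 5 mM potassium phosphate (also run without phosphate). Product captured on streptavidin beads in magnesium acetate/H3PO4 stop buffer.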

[3] = tested on: mammary and salivary carcinomas; conditions: daily administration, ras transgenic mice; cited from earlier work
[4] = tested on: human colon carcinoma xenografts; conditions: 100 mg/kg, xenograft in nude mice; cited from earlier work
[5] = tested on: HT1080 human fibrosarcoma; conditions: 100 mg/kg, xenograft in nude mice; cited from earlier work
[6] = tested on: EJ-1 human bladder carcinoma; conditions: 100 mg/kg, xenograft in nude mice; cited from earlier work

| Compound | IC50 [2] | other results |
| --- | --- | --- |
| CSCC[C@H](NC(=O)c1ccc(NC[C@@H](N)CS)cc1-c1ccccc1)C(=O)O [FTI276] |  | block of tumor growth [1]: selectively block tumor growth |
| Nc1nccn1CC(Oc1ccc2c(c1CCc1ccccc1)CCCC2=O)c1ccccc1 (stereo not drawn) [Compound 63r, 6-[2-(2-Amino-imidazol-1-yl)-1-phenyl-ethoxy]-5-phenethyl-3,4-dihydro-2H-naphthalen-1-one] | 35 nM | melting point: 185 to 188 °C |
| CC[C@H](C)[C@@H](CO[C@@H](Cc1ccccc1)C(=O)N[C@@H](CCS(C)(=O)=O)C(=O)OC(C)C)NC[C@@H](N)CS [L-744,832] |  | tumor regression [3]: tumor regression |
| COC(=O)[C@H](CCSC)NC(=O)[C@H](/C=C\[C@@H](/C=C/[C@@H](N)CS)C(C)C)Cc1ccccc1 [Compound B1086] |  | inhibition of tumor growth [4]: inhibit tumor growth; inhibition of tumor growth [5]: inhibit tumor growth; inhibition of tumor growth [6]: inhibit tumor growth |
| O=C(Nc1c(O[C@H](Cn2ccnc2)c2ccccc2)ccc2c1CCCC2=O)c1cccnc1Oc1ccccc1 [Compound 40f, N-[2-((S)-2-Imidazol-1-yl-1-phenyl-ethoxy)-5-oxo-5,6,7,8-tetrahydro-naphthalen-4-1-yl]-2-phenoxy-nicotinamide] | 13 nM |  |
| CSCC[C@H](N)C(=O)NCc1c(O[C@H](Cn2ccnc2)c2ccccc2)ccc2c1CCCC2=O [Compound 42k, (S)-2-Amino-N-[2-((S)-2-imidazol-1-yl-1-phenyl-ethoxy)-5-oxo-5,6,7,8-tetrahydro-naphthalen-1-ylmethyl]-4-methylsulfanyl-butyramide] | 16 nM |  |
| CC(C)[C@@H](Cn1ccnc1)Oc1ccc2c(c1NC(=O)c1nccc3ccccc13)CCCC2=O [Compound 63h, Isoquinoline-1-carboxylic acid [2-((S)-1-imidazol-1-ylmethyl-2-methyl-propoxy)-5-oxo-5,6,7,8-tetrahydro-naphthalen-1-yl]-amide] | 2.5 nM |  |

The next lines start with results.

| IC50 [2] | Compound | other results |
| --- | --- | --- |
| 0.2 nM | COCCNC(=O)c1cccc(SCc2c(O[C@H](Cn3ccnc3)c3ccccc3)ccc3c2CCCC3=O)c1 [Compound 259, 3-{[(2-{[(1S)-2-(1H-Imidazol-1-yl)-1-phenylethyl]oxy}-5-oxo-5,6,7,8-tetrahydro-1-naphthalenyl)methyl]sulfanyl}-N-(2-methoxyethyl)benzamide] |  |
| 0.2 nM | CC(O)CNC(=O)c1ccccc1SCc1c(O[C@H](Cn2ccnc2)c2ccccc2)ccc2c1CCCC2=O (stereo partly drawn) [Compound 257, N-(2-Hydroxypropyl)-2-{[(2-{[(1S)-2-(1H-imidazol-1-yl)-1-phenylethyl]oxy}-5-oxo-5,6,7,8-tetrahydro-1-naphthalenyl)methyl]sulfanyl}benzamide] |  |
| 18 nM | Cc1ccc(OCc2c(O[C@H](Cn3ccnc3)c3ccccc3)ccc3c2CCCC3=O)cn1 [Compound 83, 6-((1S)-2-imidazolyl-1-phenylethoxy)-5-[(6-methyl(3-pyridyloxy))methyl]-2,3,4-trihydronaphthalen-1-one] |  |
| 0.2 nM | COCCNC(=O)c1ccc(SCc2c(O[C@H](Cn3ccnc3)c3ccccc3)ccc3c2CCCC3=O)cc1 [Compound 261] |  |
| 19 nM | O=C1CCCc2c1ccc(O[C@H](Cn1ccnc1)c1ccccc1)c2CN1CCN(c2ccccn2)CC1 [Compound 147, 6-((S)-2-Imidazol-1-yl-1-phenyl-ethoxy)-5-(4-pyridin-2-yl-piperazin-1-ylmethyl)-3,4-dihydro-2H-napthalen-1-one] |  |
